In PubChem BioAssay (NCI):
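Dose response: 5 concentrations. Exposure: 48 h. Format: 96-well plates. Endpoint: linear interpolation; highest concentration if not reached. At the TGI there is no net growth.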

Columns and labels:
Assay in all cases: growth of human tumour cells (NCI), 48 h
MDA-MB-435 = system: MDA-MB-435
HS 578T breast = system: HS 578T breast
OVCAR-3 ovarian = system: OVCAR-3 ovarian
MDA-N = system: MDA-N
T-47D breast = system: T-47D breast
BT-549 breast = system: BT-549 breast
OVCAR-5 ovarian = system: OVCAR-5 ovarian
M14 melanoma = system: M14 melanoma
OVCAR-4 ovarian = system: OVCAR-4 ovarian
MCF7 breast = system: MCF7 breast
NCI-H522 lung = system: NCI-H522 lung
SF-539 CNS = system: SF-539 CNS
MALME-3M melanoma = system: MALME-3M melanoma
SNB-19 CNS = system: SNB-19 CNS
KM12 colon = system: KM12 colon
TK-10 renal = system: TK-10 renal
DU-145 prostate = system: DU-145 prostate
SF-268 CNS = system: SF-268 CNS
SK-OV-3 ovarian = system: SK-OV-3 ovarian
CCRF-CEM leukemia = system: CCRF-CEM leukemia
NCI-H23 lung = system: NCI-H23 lung
PC-3 prostate = system: PC-3 prostate
ACHN renal = system: ACHN renal
HT29 colon = system: HT29 colon
SK-MEL-28 melanoma = system: SK-MEL-28 melanoma
SK-MEL-2 melanoma = system: SK-MEL-2 melanoma
786-0 renal = system: 786-0 renal
HOP-92 NSCLC = system: HOP-92 NSCLC
HL-60(TB) leukemia = system: HL-60(TB) leukemia
HCT-116 colon = system: HCT-116 colon
CAKI-1 renal = system: CAKI-1 renal
SN12C renal = system: SN12C renal
UACC-62 melanoma = system: UACC-62 melanoma
COLO 205 colon = system: COLO 205 colon
SK-MEL-5 melanoma = system: SK-MEL-5 melanoma
K-562 leukemia = system: K-562 leukemia
LOX IMVI melanoma = system: LOX IMVI melanoma
RXF 393 renal = system: RXF 393 renal
HCC-2998 colon = system: HCC-2998 colon
UO-31 renal = system: UO-31 renal
A549 NSCLC = system: A549 NSCLC
HOP-62 NSCLC = system: HOP-62 NSCLC
MDA-MB-231 breast = system: MDA-MB-231 breast
UACC-257 melanoma = system: UACC-257 melanoma
MOLT-4 leukemia = system: MOLT-4 leukemia
SF-295 CNS = system: SF-295 CNS
U251 CNS = system: U251 CNS
IGROV1 ovarian = system: IGROV1 ovarian
NCI-H226 lung = system: NCI-H226 lung
SW-620 colon = system: SW-620 colon
NCI-H460 lung = system: NCI-H460 lung
A498 renal = system: A498 renal
OVCAR-8 ovarian = system: OVCAR-8 ovarian
EKVX NSCLC = system: EKVX NSCLC
HCT-15 colon = system: HCT-15 colon
SNB-75 CNS = system: SNB-75 CNS
NCI/ADR-RES ovarian = system: NCI/ADR-RES ovarian
RPMI-8226 leukemia = system: RPMI-8226 leukemia

Measured: TGI

COc1cc2oc(-c3ccc4c(c3)OCO4)c(OC)c(=O)c2c(OC)c1OC
99.5 µM: SF-268 CNS
93 µM: HOP-62 NSCLC
94 µM: SNB-75 CNS
39.8 µM: HOP-92 NSCLC
not listed: RPMI-8226 leukemia
> 100 µM: all other assays above

O=S(=O)(O)c1ccc(N=Nc2ccc(N=Nc3c(O)c(S(=O)(=O)O)cc4cc(S(=O)(=O)O)ccc34)cc2)cc1
not listed: LOX IMVI melanoma | A498 renal | SNB-75 CNS
> 100 µM: all other assays above
